Some test systems named below: A498 renal; HT29 colon; K-562 leukemia; KM20L2 colon; LXFL 529 NSCLC; T-47D breast; TK-10 renal; U251 CNS; UACC-257 melanoma; XF 498 CNS.
Holding throughout (experiment): growth of human tumour cells (NCI), 48 h

Data on nine compounds can be found in PubChem BioAssay (NCI).

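Dose response: 5 concentrations. Exposure: 48 h. Format: 96-well plates. Endpoint: linear interpolation; highest concentration if not reached. The concentration for 50% growth inhibition is given as GI50. At the TGI there is no net growth.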 Some results are limits rather than exact numbers.

As to `CC(C)(C)c1nc2c(o1)C(=Nc1ccc(F)cc1)c1ccccc1C2=O`, the TGI in the experiment with A498 renal is 50.9 µM; with HT29 colon, 41.6 µM; in the experiment on K-562 leukemia, greater than 100 µM; in the experiment with KM20L2 colon, 32.5 µM; in the experiment on LXFL 529 NSCLC it was greater than 100 µM; with T-47D breast it was greater than 100 µM. Further, the TGI came to 68.3 µM in the experiment with TK-10 renal, 19.7 µM with U251 CNS, 8.41 µM in the experiment on UACC-257 melanoma and 3.94 µM with XF 498 CNS.

In the case of `CC(=O)[CH-]C(C)=O.CC(=O)[CH-]C(C)=O.N=CC=N.[Sn+2]`, the GI50 in the experiment with A498 renal is 9.97 µM; with HT29 colon, 3.41 µM; in the experiment with K-562 leukemia it was 2.19 µM; in the experiment on KM20L2 colon, 8.54 µM; with LXFL 529 NSCLC, 1.32 µM; in the experiment with T-47D breast, 1.23 µM. The GI50 in the experiment with TK-10 renal was 4.48 µM; in the experiment on U251 CNS, 5.16 µM; in the experiment on UACC-257 melanoma it was 4.64 µM; with XF 498 CNS, 6.49 µM. In addition, the TGI came to 22.4 µM in the experiment with A498 renal; 10.8 µM in the experiment with HT29 colon; 13 µM with K-562 leukemia; 20.9 µM in the experiment with KM20L2 colon; 2.6 µM with LXFL 529 NSCLC; 2.62 µM in the experiment on T-47D breast. In addition, the TGI with TK-10 renal was found to be 10.7 µM; in the experiment on U251 CNS, 17.1 µM; in the experiment with UACC-257 melanoma, 15.9 µM; in the experiment on XF 498 CNS it was 16.5 µM.

For the compound `CC1(C)CCc2cc3c(cc2O1)OCCC3=O`, the TGI in the experiment on A498 renal, in the experiment with HT29 colon, in the experiment with K-562 leukemia, in the experiment with KM20L2 colon, in the experiment on LXFL 529 NSCLC and with TK-10 renal was greater than 100 µM in each case. The TGI in the experiment with U251 CNS, with UACC-257 melanoma and in the experiment with XF 498 CNS was greater than 100 µM each time.

In the case of `COc1ccc(C(=O)C(C(=O)CCC(=O)Nc2cccc(C(F)(F)F)c2)c2ccccc2)cc1` (centres undefined), the TGI in the experiment with A498 renal, with HT29 colon, in the experiment on K-562 leukemia, in the experiment with KM20L2 colon, in the experiment on LXFL 529 NSCLC and with TK-10 renal was greater than 100 µM each time. Moreover, the TGI in the experiment on U251 CNS, in the experiment with UACC-257 melanoma and with XF 498 CNS was greater than 100 µM throughout.

Regarding `COc1ccc2c(-c3cc4ccccc4o3)cc(=O)oc2c1`, the TGI in the experiment with A498 renal was greater than 92 µM; in the experiment on HT29 colon, greater than 100 µM; in the experiment with K-562 leukemia it was greater than 100 µM; with KM20L2 colon, greater than 100 µM; in the experiment on LXFL 529 NSCLC it was greater than 100 µM; in the experiment on T-47D breast it was greater than 100 µM. Besides, the TGI with TK-10 renal is 50.8 µM; in the experiment with U251 CNS, greater than 96 µM; in the experiment with UACC-257 melanoma, greater than 100 µM; in the experiment on XF 498 CNS, 45 µM.

Take `CC(=O)c1c(C)n([O-])c2cc(C)c(C)cc2[n+]1=O`: the TGI in the experiment on A498 renal, in the experiment with HT29 colon, in the experiment with K-562 leukemia, in the experiment on KM20L2 colon, in the experiment on LXFL 529 NSCLC and with TK-10 renal was greater than 100 µM in each case. For the same compound, the TGI in the experiment on U251 CNS, in the experiment on UACC-257 melanoma and with XF 498 CNS was greater than 100 µM throughout.

Turning to `COc1ccc(C2C(N)=NCC2c2ccccn2)cc1` (centres undefined), the TGI in the experiment with A498 renal, in the experiment on HT29 colon, with K-562 leukemia, in the experiment with KM20L2 colon, in the experiment with LXFL 529 NSCLC and with TK-10 renal was greater than 100 µM each time. Moreover, the TGI with U251 CNS, with UACC-257 melanoma and with XF 498 CNS was greater than 100 µM in each case.

Consider `NS(=O)(=O)c1ccc(NC(=O)c2cccc3c(=O)c4ccccc4[nH]c23)cc1`, for which the TGI in the experiment on A498 renal, with HT29 colon, in the experiment on K-562 leukemia, in the experiment with KM20L2 colon, in the experiment with LXFL 529 NSCLC and with TK-10 renal was greater than 100 µM in each case. Also, the TGI in the experiment on U251 CNS, in the experiment on UACC-257 melanoma and with XF 498 CNS was greater than 100 µM each time.

Regarding `Clc1cc(Cl)c2c(Cl)cc(Cl)c3c2c1N=S=N3`, the TGI in the experiment with A498 renal, in the experiment with HT29 colon, with K-562 leukemia, in the experiment on KM20L2 colon, in the experiment on LXFL 529 NSCLC and with TK-10 renal was greater than 100 µM in each case. The TGI was greater than 100 µM in the experiment with U251 CNS, greater than 100 µM in the experiment on UACC-257 melanoma and 49 µM in the experiment on XF 498 CNS.
